Experimental data as given in publication PMC8757604 (Journal of Enzyme Inhibition and Medicinal Chemistry, 2022).
Entries after “also recorded” stand apart in the source; their conditions may differ.

Assays:
[1] = biological target: T1, α-Glucosidase from Saccharomyces cerevisiae (Saccharomyces cerevisiae, UniProt P53341); assay: biochemical; assay type: biochemical; details: for IC50: mean ± SD, enzyme 0.1 U/mL, p-NPG 0.25 mM, pH 6.8, 37 °C, read-out: α-Glucosidase inhibition (IC50)
[2] = biological target: T2, α-amylase from hog pancreas (Sus scrofa, UniProt P00690); assay: α-Amylase inhibition assay (starch/DNS, absorbance 540 nm)
T2 sequence (P00690 16-511): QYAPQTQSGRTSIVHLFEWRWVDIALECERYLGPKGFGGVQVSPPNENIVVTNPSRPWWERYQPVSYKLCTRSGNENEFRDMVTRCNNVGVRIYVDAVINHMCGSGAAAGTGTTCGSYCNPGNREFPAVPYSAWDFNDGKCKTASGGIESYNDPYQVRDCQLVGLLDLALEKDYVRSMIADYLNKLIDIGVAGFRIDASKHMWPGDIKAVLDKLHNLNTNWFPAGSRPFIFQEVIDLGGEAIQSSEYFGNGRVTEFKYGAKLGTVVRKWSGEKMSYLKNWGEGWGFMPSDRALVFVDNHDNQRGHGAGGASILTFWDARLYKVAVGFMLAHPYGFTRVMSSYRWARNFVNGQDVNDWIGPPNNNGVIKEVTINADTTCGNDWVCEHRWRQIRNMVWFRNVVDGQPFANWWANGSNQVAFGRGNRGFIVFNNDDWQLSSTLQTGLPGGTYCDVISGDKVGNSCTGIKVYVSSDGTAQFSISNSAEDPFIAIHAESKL

[3] = system: HepG2 cells; assay: Cells cytotoxicity assay (MTT), HepG2; assay type: cell-based; details: 24 h treatment, under concentration of 100 µM
Method: (§1) 3T3–L1 or HepG2 cells were cultured in Dulbecco’s modified Eagle medium (DMEM) with 10% foetal bovine serum (FBS), 100 IU/mL penicillin and 100 IU/mL streptomycin at 37 °C under 5% CO2. 3T3-L1 cells (2 × 10^3) or HepG2 cells ([…]) were plated onto 96-well plate ([…]) and incubated for 24 h. After treated with compound (3a or 3f) for 24 h, the cells were added […] (0.5 mg/mL) and incubated for 4 h. Then […] was added to dissolve the blue insoluble MTT formazan. Finally, the absorbance was measured at 570 nm using a microplate reader. Each sample was performed in triplicate.

[4] = biological target: T2, α-amylase from hog pancreas; assay: α-Amylase inhibition kinetics (V vs [E], Lineweaver–Burk plots); assay type: biochemical; parameters: α-amylase from hog pancreas (EC3.2.1.1); from tissue; host or cells: hog pancreas; details: 3f 0-15.0 μM
Description: Compound 3f with the strongest inhibitory activity against α-amylase was selected as the representative compound for the enzyme inhibitory kinetic analysis.
The enzyme inhibition kinetics analysis was investigated. The operation method was similar with the assay of α-glucosidase, except the concentrations of test compound, enzyme and substrate.

[5] = system: 3T3-L1 cells; assay: Cells cytotoxicity assay (MTT), 3T3-L1; assay type: cell-based; details: 24 h treatment, under concentration of 100 µM
Method: as §1

[6] = biological target: T1, α-Glucosidase from Saccharomyces cerevisiae; assay: α-Glucosidase inhibition kinetics (V vs [E], Lineweaver–Burk plots); assay type: biochemical; details: 3a 0-0.5 μM
Method: To probe into the inhibition mechanism of OA derivatives (3a–3t) against α-glucosidase, compound 3a with the strongest inhibitory activity was selected as the representative compound for the enzyme inhibitory kinetic analysis. […] The inhibition kinetic behaviours were investigated using the Lineweaver–Burk plots.
The enzyme inhibition kinetics analysis was investigated using previously reported method with minor modifications[25]^,[26]. In brief, inhibitory effect was determined from the plots of absorbance change of OA derivatives at different concentrations with enzyme at different concentrations. The inhibition type was measured based on the Lineweaver–Burk plot of absorbance change of OA derivatives at different concentrations with p-NPG substrate at different concentrations.

T1 sequence (P53341 whole entry): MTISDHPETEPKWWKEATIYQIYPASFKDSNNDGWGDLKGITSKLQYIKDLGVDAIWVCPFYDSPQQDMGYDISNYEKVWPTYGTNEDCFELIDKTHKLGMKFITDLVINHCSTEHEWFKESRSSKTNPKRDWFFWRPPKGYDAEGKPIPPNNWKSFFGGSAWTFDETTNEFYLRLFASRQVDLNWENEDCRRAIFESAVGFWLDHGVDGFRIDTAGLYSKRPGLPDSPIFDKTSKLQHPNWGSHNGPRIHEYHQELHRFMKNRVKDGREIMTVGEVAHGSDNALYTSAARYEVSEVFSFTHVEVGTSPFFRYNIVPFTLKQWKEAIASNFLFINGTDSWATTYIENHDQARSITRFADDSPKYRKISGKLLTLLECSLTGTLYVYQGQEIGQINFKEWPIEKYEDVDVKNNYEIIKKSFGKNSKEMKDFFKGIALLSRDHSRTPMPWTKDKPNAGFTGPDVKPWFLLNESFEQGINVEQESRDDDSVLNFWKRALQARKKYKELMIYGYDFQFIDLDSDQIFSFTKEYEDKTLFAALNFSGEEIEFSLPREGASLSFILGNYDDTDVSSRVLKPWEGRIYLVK

Compound	IC50 [1]	IC50 [2]	also measured
CC1(C)CC[C@]2(C(=O)O)CC[C@]3(C)C(=CCC4[C@@]5(C)CC/C(=N\OC(=O)/C=C/c6ccc(C(F)(F)F)cc6)C(C)(C)C5CC[C@]43C)C2C1 (stereo partly shown) [Compound 3g]	3.13 ± 0.13 µM	12.6 ± 2.37 µM	–
CC1(C)CC[C@]2(C(=O)O)CC[C@]3(C)C(=CCC4[C@@]5(C)CC/C(=N\OC(=O)c6ccc(O)cc6)C(C)(C)C5CC[C@]43C)C2C1 (stereo partly shown) [Compound 3t]	0.91 ± 0.04 µM	152 ± 4.24 µM	–
CC1(C)CC[C@]2(C(=O)O)CC[C@]3(C)C(=CCC4[C@@]5(C)CC/C(=N\OC(=O)c6ccccc6)C(C)(C)C5CC[C@]43C)C2C1 (stereo partly shown) [Compound 3k]	0.67 ± 0.04 µM	25.6 ± 1.66 µM	–
CC1(C)CCC2(C(=O)O)CCC3(C)C(=CCC4C5(C)CCC(=NOC(=O)C=Cc6ccc(Br)cc6)C(C)(C)C5CCC43C)C2C1 (stereo not shown) [Compound 3f]	1.28 ± 0.03 µM	3.8 ± 0.65 µM	Cytotoxicity to HepG2 cells [3]: non-cytotoxic; Inhibition type towards α-amylase ([4]; Lineweaver–Burk plots): mixed types; also recorded: mixed-type inhibitor; Reversibility of α-amylase inhibition ([4]; plots of V vs α-amylase concentration): reversible; Cytotoxicity to 3T3-L1 cells [5]: non-cytotoxic; α-amylase inhibition, times better than OA ([2]; ratio of IC50 vs OA): ~25 times; α-amylase inhibition, times better than acarbose ([2]; ratio of IC50 vs acarbose): ~26 times
COc1ccc(/C=C/C(=O)O/N=C2\CC[C@@]3(C)C(CC[C@]4(C)C3CC=C3C5CC(C)(C)CC[C@]5(C(=O)O)CC[C@]34C)C2(C)C)cc1 (stereo partly shown) [Compound 3c]	0.89 ± 0.07 µM	25.4 ± 1.17 µM	–
COc1ccc(C(=O)O/N=C2\CC[C@@]3(C)C(CC[C@]4(C)C3CC=C3C5CC(C)(C)CC[C@]5(C(=O)O)CC[C@]34C)C2(C)C)cc1 (stereo partly shown) [Compound 3m]	1.1 ± 0.1 µM	35.5 ± 2.41 µM	–
CC1(C)CC[C@]2(C(=O)O)CC[C@]3(C)C(=CCC4[C@@]5(C)CC/C(=N\OC(=O)/C=C/c6ccc7c(c6)OCO7)C(C)(C)C5CC[C@]43C)C2C1 (stereo partly shown) [Compound 3i]	0.71 ± 0.02 µM	17.9 ± 1.21 µM	–
CC1(C)CC[C@]2(C(=O)O)CC[C@]3(C)C(=CCC4[C@@]5(C)CC/C(=N\OC(=O)c6ccc(C(F)(F)F)cc6)C(C)(C)C5CC[C@]43C)C2C1 (stereo partly shown) [Compound 3q]	3.43 ± 0.17 µM	33.6 ± 1.93 µM	–
CC1(C)CC[C@]2(C(=O)O)CC[C@]3(C)C(=CCC4[C@@]5(C)CC/C(=N\OC(=O)/C=C/c6ccc(F)cc6)C(C)(C)C5CC[C@]43C)C2C1 (stereo partly shown) [Compound 3d]	1.45 ± 0.12 µM	17.5 ± 1.52 µM	–
CC1(C)CC[C@]2(C(=O)O)CC[C@]3(C)C(=CCC4[C@@]5(C)CC/C(=N\OC(=O)c6ccc(Cl)cc6)C(C)(C)C5CC[C@]43C)C2C1 (stereo partly shown) [Compound 3o]	1.74 ± 0.14 µM	26.3 ± 1.61 µM	–
Cc1ccc(/C=C/C(=O)O/N=C2\CC[C@@]3(C)C(CC[C@]4(C)C3CC=C3C5CC(C)(C)CC[C@]5(C(=O)O)CC[C@]34C)C2(C)C)cc1 (stereo partly shown) [Compound 3b]	0.68 ± 0.03 µM	15.3 ± 1.41 µM	–
CC1(C)CCC2(C(=O)O)CCC3(C)C(=CCC4C5(C)CCC(=NOC(=O)C=Cc6ccccc6)C(C)(C)C5CCC43C)C2C1 (stereo not shown) [Compound 3a]	0.35 ± 0.06 µM	7.86 ± 1.24 µM	α-glucosidase inhibition, times stronger than OA ([1]; ratio of IC50 vs OA): ~11 times; α-glucosidase inhibition, times stronger than acarbose ([1]; ratio of IC50 vs acarbose): ~1900 times; Cytotoxicity to HepG2 cells [3]: non-cytotoxic; Cytotoxicity to 3T3-L1 cells [5]: non-cytotoxic; Inhibition type towards α-glucosidase ([6]; Lineweaver–Burk plots): mixed-type inhibitor; also recorded: mixed types; Reversibility of α-glucosidase inhibition ([6]; plots of V vs [E]): reversible
CC1(C)CC[C@]2(C(=O)O)CC[C@]3(C)C(=CCC4[C@@]5(C)CC/C(=N\OC(=O)c6ccc(Br)cc6)C(C)(C)C5CC[C@]43C)C2C1 (stereo partly shown) [Compound 3p]	1.81 ± 0.05 µM	15.9 ± 1.75 µM	–
CC1(C)CC[C@]2(C(=O)O)CC[C@]3(C)C(=CCC4[C@@]5(C)CC/C(=N\OC(=O)/C=C/c6ccc([N+](=O)[O-])cc6)C(C)(C)C5CC[C@]43C)C2C1 (stereo partly shown) [Compound 3h]	1.36 ± 0.03 µM	18.3 ± 1.92 µM	–
CC1(C)CC[C@]2(C(=O)O)CC[C@]3(C)C(=CCC4[C@@]5(C)CC/C(=N\OC(=O)c6ccc(F)cc6)C(C)(C)C5CC[C@]43C)C2C1 (stereo partly shown) [Compound 3n]	1.96 ± 0.25 µM	70.2 ± 2.53 µM	–
CC1(C)CC[C@]2(C(=O)O)CC[C@]3(C)C(=CCC4[C@@]5(C)CC/C(=N\OC(=O)c6ccc7c(c6)OCO7)C(C)(C)C5CC[C@]43C)C2C1 (stereo partly shown) [Compound 3s]	1.37 ± 0.06 µM	18.7 ± 1.29 µM	–
CC1(C)CC[C@]2(C(=O)O)CC[C@]3(C)C(=CCC4[C@@]5(C)CC/C(=N\OC(=O)/C=C/c6ccc(O)cc6)C(C)(C)C5CC[C@]43C)C2C1 (stereo partly shown) [Compound 3j]	0.82 ± 0.09 µM	70.8 ± 2.31 µM	–
CC1(C)CC[C@]2(C(=O)O)CC[C@]3(C)C(=CCC4[C@@]5(C)CC/C(=N\OC(=O)/C=C/c6ccc(Cl)cc6)C(C)(C)C5CC[C@]43C)C2C1 (stereo partly shown) [Compound 3e]	0.95 ± 0.06 µM	5.64 ± 1.29 µM	–
Cc1ccc(C(=O)O/N=C2\CC[C@@]3(C)C(CC[C@]4(C)C3CC=C3C5CC(C)(C)CC[C@]5(C(=O)O)CC[C@]34C)C2(C)C)cc1 (stereo partly shown) [Compound 3l]	0.99 ± 0.05 µM	55.3 ± 2.39 µM	–
CC1(C)CC[C@]2(C(=O)O)CC[C@]3(C)C(=CCC4[C@@]5(C)CC/C(=N\OC(=O)c6ccc([N+](=O)[O-])cc6)C(C)(C)C5CC[C@]43C)C2C1 (stereo partly shown) [Compound 3r]	1.41 ± 0.12 µM	70.7 ± 1.25 µM	–
